Patent US20240166681A1, “3'3' CYCLIC DINUCLEOTIDES CONTAINING ISONUCLEOTIDIC UNITS” (INSTITUTE OF ORGANIC CHEMISTRY AND BIOCHEMISTRY AS CR, V. …, priority 2021, published 2024)

Molecular target: WT STING (Homo sapiens, UniProt Q86WV6, H232R)
Test: Digitonin assay using 293T wtSTING-FL reporter cells
Type: cell-based
Parameters: host or cells: 293T (ATCC CRL-3216), stably transfected
Conditions: 293T wtSTING-FL cells, digitonin buffer 30 min, then 5 h, ISRE firefly luciferase reporter
Source text: […] […] (SEQ ID NO:2) containing four interferon-sensitive response elements (ISRE) were synthesized by Sigma Aldrich (Czech Republic, Prague). The oligonucleotides were mixed in equal molar amounts, hybridized, and cleaved by restriction endonucleases HindIII (cat. #.R0104S, NEB, Ipswich, USA) and BglII (cat. #R0144S, NEB, Ipswich, USA). Ultimately, they were ligated into plasmid pGL4.27 (cat. #E6651, Promega, Madison, USA) linearized with the same enzymes. As result the sequence with four ISRE sites was placed upstream of the minimum promoter of firefly luciferase reporter gene.
293T cells (cat. #CRL-3216, ATCC, Manassas, USA) were seeded a day before transfection at density 125,000 cells per cm^2 onto poly-D-lysine (cat. #P6407, Sigma Aldrich, Czech Republic) coated six well plates in antibiotic free DMEM with high glucose (cat. #D5796, Sigma Aldrich, Czech Republic) supplemented with 10% heat inactivated FBS (cat. #S1520, Biowest, Riverside, USA). On the day of transfection, 2.5 μg of the plasmid pUNO1-hSTING-WT (cat. #punol-hstingwt, InvivoGen, San Diego, USA,) encoding human wild type STING (WT STING) was diluted in 125 μL OptiMEM medium (cat. #31985062, ThermoFisher, Waltham, USA) and mixed with 125 μL of the same medium containing 12.5 μL of Lipofectamine 2000 (cat. #11668019, ThermoFisher, Waltham, USA). After 5 minutes incubation at room temperature (RT), 250 μL of the mixture was added dropwise to the cells in one well. Cells were incubated 36 hours at 37° C. with 5% CO2, and then detached with 0.05% Trypsin and 0.22 g/L EDTA (both cat. #L0941, Biowest, Riverside, USA).
Transfected cells were seeded onto poly-D-lysine coated six well plates at density 50,000 cells per 1 cm^2 in DMEM medium with high glucose containing 10% heat inactivated FBS, 30 μg/mL blasticidin (cat. #ant-b1-05, InvivoGen, San Diego, USA), 0.06 mg/ml Penicillin G and 0.1 mg/ml Streptomycin Sulfate (both cat. #. L0018, Biowest, Riverside, USA). The medium was replenished every 3-4 days until visible colonies of cells resistant to blasticidin were formed.
Blasticidin resistant cells stably expressing WT STING were further transfected with […] plasmid following the same procedure as described above. The transfected cells were selected for the resistance to 300 μg/mL hygromycin (cat. #. 10687010, ThermoFisher, Waltham, USA) in DMEM with high glucose containing 10% heat inactivated FBS, 30μg/mL blasticidin, 0.06 mg/ml Penicillin G and 0.1 mg/ml Streptomycin Sulfate. Homogeneous culture of stably double transfected cells was prepared by limiting dilution of cells in 96 well plates and wells with cells were selected that originated from a single cell. These cells were expanded, and expression of WT STING was confirmed by western blot using monoclonal mouse anti STING antibodies (cat. #. MAB7169, 1:1000 dilution; […]. Genomic DNA from the transfected cells was amplified with primers pUNO1_Seq_F ([…]) (SEQ ID NO:3) and pUNO1_Seq_R ([…]) (SEQ ID NO:4) that were complementary to pUNO1 plasmid and the presence of WT STING gene in the transfected cells was confirmed by DNA sequencing.
293T wtSTING-FL cells were seeded at density of 250,000 cells per cm^2 onto 96 well poly-D-lysine coated plates in 100 μl DMEM with high glucose supplemented with 10% heat inactivated FBS. The medium was removed next day and three fold serial dilutions of compounds in Digitonin buffer containing 50 mmol·l^−1 HEPES (cat. #H3375, Sigma Aldrich, Czech Republic) pH 7.0, 100 mmol·l^−1 KCl, 3 mmol·l^−1 MgCl2, 0.1 mmol.·l^−1 DTT (cat. #D0632, Sigma Aldrich, Czech Republic), 85 mmol·l^−1 Sucrose (cat. #S7903, Sigma Aldrich, Czech Republic), 0.2% BSA (cat. #A2153, Sigma Aldrich, Czech Republic), 1 mmol·l^−1 ATP (cat. #A1852, Sigma Aldrich, Czech Republic), 0.1 mmol·l^−1 GTP (cat. #G8877, Sigma Aldrich, Czech Republic), and 10 μg/mL Digitonin A (cat. #D141, Sigma Aldrich, Czech Republic) were added to the cells. […]

Chain of WT STING (Q86WV6 whole entry H232R): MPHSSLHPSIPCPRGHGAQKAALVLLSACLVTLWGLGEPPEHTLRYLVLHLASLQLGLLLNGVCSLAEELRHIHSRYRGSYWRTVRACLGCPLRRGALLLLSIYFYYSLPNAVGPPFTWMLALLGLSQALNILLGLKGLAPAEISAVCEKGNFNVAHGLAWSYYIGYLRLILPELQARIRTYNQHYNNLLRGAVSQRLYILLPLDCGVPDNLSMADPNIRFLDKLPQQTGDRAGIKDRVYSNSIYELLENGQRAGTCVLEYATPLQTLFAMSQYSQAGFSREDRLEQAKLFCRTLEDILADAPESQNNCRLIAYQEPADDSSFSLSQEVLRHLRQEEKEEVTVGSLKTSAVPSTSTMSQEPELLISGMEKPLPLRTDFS

| Structure (SMILES) | EC50 |
| --- | --- |
| Nc1nc2c(ncn2[C@@H]2O[C@@H]3COP(=O)(O)O[C@H]4[C@H](n5cnc6c(N)ncnc65)CO[C@@H]4COP(=O)(O)O[C@H]3[C@H]2F)c(=O)[nH]1 [Compound 24, (1S,6R,8R,9R,10R,15R,18R)-8-(2-amino-6-oxo-6,9-dihydro-1H-purin-9-yl)-18-(6-amino-9H-purin-9-yl)-9-fluoro-3,12-dihydroxy-2,4,7,11,13,16-hexaoxa-3λ^5,12λ^5-diphosphatricyclo[13.3.0.0^6,10]octadecane-3,12-dione] | 30 nM |
| Nc1ncnc2c1ncn2[C@@H]1CO[C@@H]2COP(=O)(O)O[C@H]3C[C@H](n4cnc5c(N)ncnc54)O[C@@H]3COP(=O)(O)O[C@@H]12 [Compound 50, (1S,6R,8R,10S,15R,18R)-8,18-bis(6-amino-9H-purin-9-yl)-3,12-dihydroxy-2,4,7,11,13,16-hexaoxa-3λ^5,12λ^5-diphosphatricyclo[13.3.0.0^6,10]octadecane-3,12-dione] | 280 nM |
| Nc1nc2c(ncn2[C@@H]2CO[C@@H]3COP(=O)(O)O[C@H]4[C@@H](F)[C@H](n5cnc6c(N)ncnc65)O[C@@H]4COP(=O)(O)O[C@@H]23)c(=O)[nH]1 [Compound 51, (1S,6R,8R,9R,10R,15R,18R)-18-(2-amino-6-oxo-6,9-dihydro-1H-purin-9-yl)-8-(6-amino-9H-purin-9-yl)-9-fluoro-3,12-dihydroxy-2,4,7,11,13,16-hexaoxa-3λ^5,12λ^5-diphosphatricyclo[13.3.0.0^6,10]octadecane-3,12-dione] | 80 nM |
| Nc1nc2c(ncn2[C@@H]2CO[C@@H]3COP(=O)(O)O[C@H]4[C@H](n5cnc6c(N)ncnc65)CO[C@@H]4COP(=O)(O)O[C@@H]23)c(=O)[nH]1 [Compound 52, (1S,6R,9R,10S,15R,18R)-9-(2-amino-6-oxo-6,9-dihydro-1H-purin-9-yl)-18-(6-amino-9H-purin-9-yl)-3,12-dihydroxy-2,4,7,11,13,16-hexaoxa-3λ^5,12λ^5-diphosphatricyclo[13.3.0.0^6,10]octadecane-3,12-dione] | 1350 nM |
| Nc1nc2c(ncn2[C@@H]2CO[C@@H]3COP(=O)(O)O[C@H]4C[C@H](n5cnc6c(N)ncnc65)O[C@@H]4COP(=O)(O)O[C@@H]23)c(=O)[nH]1 [Compound 53, (1S,6R,8R,10S,15R,18R)-18-(2-amino-6-oxo-6,9-dihydro-1H-purin-9-yl)-8-(6-amino-9H-purin-9-yl)-3,12-dihydroxy-2,4,7,11,13,16-hexaoxa-3λ^5,12λ^5-diphosphatricyclo[13.3.0.0^6,10]octadecane-3,12-dione] | 280 nM |

Second part, the compound after the results:

| EC50 | Structure (SMILES) |
| --- | --- |
| 20 nM | Nc1ncnc2c1ncn2[C@@H]1CO[C@@H]2COP(=O)(O)O[C@H]3[C@@H](F)[C@H](n4cnc5c(N)ncnc54)O[C@@H]3COP(=O)(O)O[C@@H]12 [Compound 28, (1S,6R,8R,9R,10R,15R,18R)-8,18-bis(6-amino-9H-purin-9-yl)-9-fluoro-3,12-dihydroxy-2,4,7,11,13,16-hexaoxa-3λ^5,12λ^5-diphosphatricyclo[13.3.0.0^6,10]octadecane-3,12-dione] |
| 450 nM | Nc1ncnc2c1ncn2[C@@H]1CC[C@@H]2COP(=O)(O)O[C@H]3[C@@H](F)[C@H](n4cnc5c(N)ncnc54)O[C@@H]3COP(=O)(O)O[C@H]21 [Compound 34, (1R,6R,8R,9R,10R,15R,18R)-8,18-bis(6-amino-9H-purin-9-yl)-9-fluoro-3,12-dihydroxy-2,4,7,11,13-pentaoxa-3λ^5,12λ^5-diphosphatricyclo[13.3.0.0^6,10]octadecane-3,12-dione] |
| 10 nM | Nc1ncnc2c1ncn2[C@@H]1CO[C@@H]2COP(=O)(S)O[C@H]3[C@@H](F)[C@H](n4cnc5c(N)ncnc54)O[C@@H]3COP(=O)(S)O[C@@H]12 (stereo partly drawn) [Compound 54, (1S,6R,8R,9R,10R,15R,18R)-8,18-bis(6-amino-9H-purin-9-yl)-9-fluoro-3,12-disulfanyl-2,4,7,11,13,16-hexaoxa-3λ^5,12λ^5-diphosphatricyclo[13.3.0.0^6,10]octadecane-3,12-dione] |
| 10 nM | Nc1ncnc2c1ncn2[C@@H]1CO[C@@H]2COP(=O)(S)O[C@H]3[C@@H](F)[C@H](n4cnc5c(N)ncnc54)O[C@@H]3COP(=O)(S)O[C@@H]12 (stereo partly drawn) [Compound 55, (1S,6R,8R,9R,10R,15R,18R)-8,18-bis(6-amino-9H-purin-9-yl)-9-fluoro-3,12-disulfanyl-2,4,7,11,13,16-hexaoxa-3λ^5,12λ^5-diphosphatricyclo[13.3.0.0^6,10]octadecane-3,12-dione] |
